Assay results from ChEMBL document CHEMBL4118235, “The recent progress of isoxazole in medicinal chemistry” (Bioorg Med Chem, 2018).
pIC50: −log10 of the molar value. Converted amounts (≈) assume the structure as drawn.

Tests used:
Homo sapiens [1] = species: Homo sapiens; experiment: Selectivity ratio of IC50 for human HDAC3 to IC50 for recombinant human full length HDAC6 expressed in baculovirus infected Sf9 insect cells
Homo sapiens [2] = species: Homo sapiens; experiment: Selectivity ratio of IC50 for human HDAC2 to IC50 for recombinant human full length HDAC6 expressed in baculovirus infected Sf9 insect cells
Homo sapiens [3] = species: Homo sapiens; experiment: Selectivity ratio of IC50 for recombinant human full length HDAC1 expressed in baculovirus infected Sf9 insect cells to IC50 for recombinant human full length HDAC6 expressed in baculovirus infected Sf9 insect cells
[4] = target: T1, Protein deacetylase HDAC6 (Homo sapiens, UniProt Q9UBN7); experiment: Inhibition of recombinant human full length HDAC6 expressed in baculovirus infected Sf9 insect cells using RHKKAC as substrate incubated for 5 to 10 mins followed by substrate addition measured after 2 hrs by fluorescence assay
T1 sequence (Q9UBN7 whole entry): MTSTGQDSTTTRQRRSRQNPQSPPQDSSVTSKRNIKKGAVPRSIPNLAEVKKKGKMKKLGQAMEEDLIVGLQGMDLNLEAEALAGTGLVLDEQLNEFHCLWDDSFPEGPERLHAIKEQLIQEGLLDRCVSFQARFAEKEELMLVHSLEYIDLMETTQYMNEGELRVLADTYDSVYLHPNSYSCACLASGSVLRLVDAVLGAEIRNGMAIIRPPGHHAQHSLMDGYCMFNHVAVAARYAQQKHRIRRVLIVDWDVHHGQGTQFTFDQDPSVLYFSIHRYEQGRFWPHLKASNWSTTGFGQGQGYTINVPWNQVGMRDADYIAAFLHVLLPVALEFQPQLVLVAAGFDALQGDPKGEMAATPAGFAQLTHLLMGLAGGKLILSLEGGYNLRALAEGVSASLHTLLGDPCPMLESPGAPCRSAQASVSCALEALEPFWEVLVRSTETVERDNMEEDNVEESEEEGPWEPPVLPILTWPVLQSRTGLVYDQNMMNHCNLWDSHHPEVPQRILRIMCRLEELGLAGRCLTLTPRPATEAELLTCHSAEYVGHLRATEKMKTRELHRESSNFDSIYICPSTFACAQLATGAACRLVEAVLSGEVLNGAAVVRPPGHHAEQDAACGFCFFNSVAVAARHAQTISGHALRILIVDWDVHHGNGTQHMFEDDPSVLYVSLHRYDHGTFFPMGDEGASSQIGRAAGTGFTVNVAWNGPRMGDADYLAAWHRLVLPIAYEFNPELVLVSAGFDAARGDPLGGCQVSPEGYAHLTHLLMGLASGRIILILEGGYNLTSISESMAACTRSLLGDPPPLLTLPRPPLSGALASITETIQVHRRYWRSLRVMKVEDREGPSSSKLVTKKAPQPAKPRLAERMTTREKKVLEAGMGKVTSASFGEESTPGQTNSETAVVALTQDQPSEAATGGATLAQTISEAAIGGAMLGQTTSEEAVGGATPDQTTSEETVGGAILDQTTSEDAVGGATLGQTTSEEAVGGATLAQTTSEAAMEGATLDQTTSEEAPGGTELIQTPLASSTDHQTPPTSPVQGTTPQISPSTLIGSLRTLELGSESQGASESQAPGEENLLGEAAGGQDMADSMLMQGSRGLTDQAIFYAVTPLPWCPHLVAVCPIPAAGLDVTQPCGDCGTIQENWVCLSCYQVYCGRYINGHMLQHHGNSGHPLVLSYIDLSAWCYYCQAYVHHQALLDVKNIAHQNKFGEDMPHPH

MC-38 = experiment: Cytotoxicity against mouse Colon 38 cells after 5 days by hemocytometry; format: functional, cell-based; settings: MC-38, 120 h
CT26 = experiment: Cytotoxicity against mouse CT26 cells after 5 days by hemocytometry; format: functional, cell-based; settings: CT26, 120 h
HCT-116 [5] = experiment: Antitumor activity against human HCT116 cells xenografted in BALB/c nude mouse assessed as tumor growth inhibition at 50 mg/kg, ip for 16 days; format: functional; settings: HCT-116, ip, 384 h, read-out: TGI
HCT-116 [6] = experiment: Antitumor activity against human HCT116 cells xenografted in BALB/c nude mouse assessed as tumor growth inhibition at 100 mg/kg, ip for 16 days; format: functional; settings: HCT-116, ip, 384 h, read-out: TGI
Escherichia coli = experiment: Antibacterial activity against Escherichia coli ATCC 8739 after 24 hrs by agar well diffusion method; format: functional; settings: ATCC 8739, 24 h
Staphylococcus aureus = experiment: Antibacterial activity against Staphylococcus aureus ATCC 6538P after 24 hrs by agar well diffusion method; format: functional
[7] = system: Mycobacterium tuberculosis; experiment: Antimycobacterial activity against Mycobacterium tuberculosis H37Rv; format: functional
HeLa = experiment: Antiproliferative activity against human HeLa cells after 48 hrs by MTT assay; format: functional, cell-based
MCF7 = experiment: Antiproliferative activity against human MCF7 cells after 48 hrs by MTT assay; format: functional, cell-based; settings: MCF7, 48 h

SMILES | Ratio IC50 (Homo sapiens [1]) | Ratio IC50 (Homo sapiens [2]) | Ratio IC50 (Homo sapiens [3]) | pIC50 [4] | also measured
CCCCCCC(=O)Nc1cccc(-c2cc(C(=O)NCc3ccc(C(=O)NO)cc3)no2)c1 | > 500 | > 500 | > 500 | > 8.00 | –
O=C(Nc1ccc(Cl)cc1)c1ccno1 | – | – | – | – | IC50 (MC-38): 2.5 µg/mL (≈ 11.2 µM); IC50 (CT26): 2.5 µg/mL (≈ 11.2 µM)
CCc1cc(-c2oncc2-c2ccc(OC)cc2)c(O)cc1OC | – | – | – | – | inhibition in vivo at 50 mg/kg (HCT-116 [5]): 49.5%; inhibition in vivo at 100 mg/kg (HCT-116 [6]): 70.3%
O=[N+]([O-])c1ccc(-c2cc(C3CC3)no2)cc1 | – | – | – | – | MIC (Escherichia coli): 25 µg/mL (≈ 109 µM); MIC (Staphylococcus aureus): 25 µg/mL (≈ 109 µM)
CCCCCCC(=O)Nc1ccc(-c2cc(C(=O)NCc3ccc(C(=O)NO)cc3)no2)cc1 | > 500 | > 500 | > 500 | > 8.00 | –
CC(C)(C)OC(=O)Nc1cccc(-c2cc(C(=O)NCc3ccc(C(=O)NO)cc3)no2)c1 | > 500 | > 500 | > 500 | > 8.00 | –
CC(C)(C)OC(=O)Nc1ccc(-c2cc(C(=O)NCc3ccc(C(=O)NO)cc3)no2)cc1 | > 500 | > 500 | > 500 | > 8.00 | –
CCOC(=O)c1cc(/C=C/c2ccnc3ccccc23)on1 | – | – | – | – | MIC [7]: 0.2 µM (≈ 0.0589 µg/mL)
COc1ccc(-c2cc(-c3cccs3)on2)cc1OC | – | – | – | – | pIC50 (HeLa): 4.41; pIC50 (MCF7): 4.71
